Measurements from patent publication US20240245659A1, “Methods of Treating Cushing's Syndrome and Liver Disorders, and of Reducing Liver Toxicity of Other Drugs Administered to a Patient” (Corcept Therapeutics Incorporated, priority 2022, published 2024).

Experiments:
CYP2C8 = biological target: T1, CYP2C8 (Homo sapiens, UniProt P10632); conditions: on administration; cited from earlier work
T1 sequence (P10632 1-490): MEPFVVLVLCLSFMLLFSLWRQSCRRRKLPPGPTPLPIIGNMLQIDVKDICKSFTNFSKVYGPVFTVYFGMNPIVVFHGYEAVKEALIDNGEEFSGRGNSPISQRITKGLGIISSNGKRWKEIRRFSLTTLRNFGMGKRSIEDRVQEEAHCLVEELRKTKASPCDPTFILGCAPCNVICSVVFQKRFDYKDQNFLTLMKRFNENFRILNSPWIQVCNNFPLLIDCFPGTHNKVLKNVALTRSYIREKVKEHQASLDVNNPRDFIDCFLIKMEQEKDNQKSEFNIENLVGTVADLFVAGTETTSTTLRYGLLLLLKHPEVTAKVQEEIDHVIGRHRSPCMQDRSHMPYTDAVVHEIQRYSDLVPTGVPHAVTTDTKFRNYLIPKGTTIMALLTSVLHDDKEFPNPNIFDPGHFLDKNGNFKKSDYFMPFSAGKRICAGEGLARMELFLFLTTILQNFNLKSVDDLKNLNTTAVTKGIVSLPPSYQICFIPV

CYP2C9 = CYP2C9 (Homo sapiens, UniProt P11712); conditions: on administration; cited from earlier work
Chain of CYP2C9 (P11712 whole entry): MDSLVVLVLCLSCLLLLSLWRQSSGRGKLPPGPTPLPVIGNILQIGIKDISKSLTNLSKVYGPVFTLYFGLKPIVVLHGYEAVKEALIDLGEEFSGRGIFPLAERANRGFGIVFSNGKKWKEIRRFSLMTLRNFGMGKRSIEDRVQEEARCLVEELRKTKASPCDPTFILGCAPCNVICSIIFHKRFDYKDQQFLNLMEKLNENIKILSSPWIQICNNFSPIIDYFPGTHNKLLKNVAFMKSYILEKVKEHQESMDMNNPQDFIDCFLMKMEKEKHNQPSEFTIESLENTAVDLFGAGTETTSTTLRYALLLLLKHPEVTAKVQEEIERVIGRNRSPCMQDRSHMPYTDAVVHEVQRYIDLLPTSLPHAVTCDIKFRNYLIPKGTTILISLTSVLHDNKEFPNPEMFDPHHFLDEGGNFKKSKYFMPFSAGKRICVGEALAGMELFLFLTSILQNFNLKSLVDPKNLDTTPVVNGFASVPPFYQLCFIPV

[1] = biological target: T2, glucocorticoid receptor type 2 (GR) (Homo sapiens, UniProt P04150); conditions: cited from earlier work
T2 sequence (P04150 1-777): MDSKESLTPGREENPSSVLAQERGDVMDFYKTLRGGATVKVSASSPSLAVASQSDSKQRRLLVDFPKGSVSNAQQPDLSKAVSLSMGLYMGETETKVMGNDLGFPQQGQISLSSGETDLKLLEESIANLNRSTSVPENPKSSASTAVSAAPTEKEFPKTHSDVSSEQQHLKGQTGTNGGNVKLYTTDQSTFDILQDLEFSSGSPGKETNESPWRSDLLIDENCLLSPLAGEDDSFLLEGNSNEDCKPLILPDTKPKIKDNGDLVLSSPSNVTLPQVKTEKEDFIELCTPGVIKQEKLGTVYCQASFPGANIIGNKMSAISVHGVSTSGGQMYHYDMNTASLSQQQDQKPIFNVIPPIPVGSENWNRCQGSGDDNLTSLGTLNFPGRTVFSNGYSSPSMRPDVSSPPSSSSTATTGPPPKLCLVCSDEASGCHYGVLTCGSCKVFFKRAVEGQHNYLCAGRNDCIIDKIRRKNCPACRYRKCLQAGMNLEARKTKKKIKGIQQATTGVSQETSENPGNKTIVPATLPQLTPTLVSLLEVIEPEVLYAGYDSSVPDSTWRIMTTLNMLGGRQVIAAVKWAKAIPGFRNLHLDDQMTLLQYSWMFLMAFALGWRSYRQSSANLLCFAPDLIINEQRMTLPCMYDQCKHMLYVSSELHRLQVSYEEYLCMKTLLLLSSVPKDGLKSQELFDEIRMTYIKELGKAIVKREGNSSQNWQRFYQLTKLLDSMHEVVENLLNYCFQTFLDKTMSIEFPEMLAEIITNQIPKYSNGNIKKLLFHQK

[2] = Phase 2 Cushing's syndrome study, low-dose and high-dose groups; assay type: in vivo, human
Experimental: A multicenter, open-label study with two dose groups enrolled 34 patients (aged 18-80 years) with endogenous Cushing's Syndrome (CS) and impaired glucose tolerance or type 2 diabetes mellitus and/or uncontrolled or untreated hypertension. Patients with elevated AST or ALT (elevated defined as greater than 3-times the ULN) were excluded. These patients were treated with relacorilant at two dosage levels. The dosages for each group were escalated in 50-mg dose increments every 4 weeks. The low dose group received relacorilant beginning at a dose of 100 mg/day, escalating to dosages of 200 mg/day during the duration of the 12-week treatment. The high-dose group received relacorilant beginning at a dose of 250 mg/day, escalating to a dosage of 400 mg/day during the duration of the 16-week treatment. The P-values shown are the P-values for the mean change from baseline to last observation calculated from the Wilcoxon signed-rank test. The Efficacy Population includes all patients treated with relacorilant who had postbaseline data.

progesterone receptor = biological target: T3, progesterone receptor (Homo sapiens, UniProt P06401); conditions: cited from earlier work
T3 sequence (P06401 1-933): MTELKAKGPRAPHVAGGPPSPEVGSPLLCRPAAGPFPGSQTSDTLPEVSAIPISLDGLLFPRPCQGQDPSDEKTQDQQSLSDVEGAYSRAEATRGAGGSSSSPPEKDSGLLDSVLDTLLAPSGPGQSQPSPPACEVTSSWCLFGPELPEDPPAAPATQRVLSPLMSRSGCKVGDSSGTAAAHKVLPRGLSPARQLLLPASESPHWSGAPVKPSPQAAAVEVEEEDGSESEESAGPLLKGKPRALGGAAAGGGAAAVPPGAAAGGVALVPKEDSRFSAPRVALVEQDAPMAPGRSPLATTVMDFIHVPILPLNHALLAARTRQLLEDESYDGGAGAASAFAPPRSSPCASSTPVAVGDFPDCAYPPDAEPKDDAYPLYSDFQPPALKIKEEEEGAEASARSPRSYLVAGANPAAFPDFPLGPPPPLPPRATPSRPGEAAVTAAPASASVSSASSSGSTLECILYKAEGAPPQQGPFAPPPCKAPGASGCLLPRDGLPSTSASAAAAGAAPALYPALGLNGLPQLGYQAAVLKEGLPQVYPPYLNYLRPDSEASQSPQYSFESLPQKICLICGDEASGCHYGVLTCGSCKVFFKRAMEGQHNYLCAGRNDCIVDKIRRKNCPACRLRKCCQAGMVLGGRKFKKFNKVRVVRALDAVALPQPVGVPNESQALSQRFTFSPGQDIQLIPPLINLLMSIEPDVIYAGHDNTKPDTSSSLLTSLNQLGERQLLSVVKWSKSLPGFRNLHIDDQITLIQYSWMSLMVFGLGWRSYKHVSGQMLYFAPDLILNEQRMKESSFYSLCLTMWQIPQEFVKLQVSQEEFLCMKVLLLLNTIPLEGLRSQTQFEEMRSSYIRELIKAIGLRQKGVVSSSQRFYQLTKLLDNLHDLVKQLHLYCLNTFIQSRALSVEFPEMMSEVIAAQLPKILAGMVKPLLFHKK

CYP3A4 = CYP3A4 (Homo sapiens, UniProt P08684); conditions: in vivo; cited from earlier work
Chain of CYP3A4 (P08684 whole entry): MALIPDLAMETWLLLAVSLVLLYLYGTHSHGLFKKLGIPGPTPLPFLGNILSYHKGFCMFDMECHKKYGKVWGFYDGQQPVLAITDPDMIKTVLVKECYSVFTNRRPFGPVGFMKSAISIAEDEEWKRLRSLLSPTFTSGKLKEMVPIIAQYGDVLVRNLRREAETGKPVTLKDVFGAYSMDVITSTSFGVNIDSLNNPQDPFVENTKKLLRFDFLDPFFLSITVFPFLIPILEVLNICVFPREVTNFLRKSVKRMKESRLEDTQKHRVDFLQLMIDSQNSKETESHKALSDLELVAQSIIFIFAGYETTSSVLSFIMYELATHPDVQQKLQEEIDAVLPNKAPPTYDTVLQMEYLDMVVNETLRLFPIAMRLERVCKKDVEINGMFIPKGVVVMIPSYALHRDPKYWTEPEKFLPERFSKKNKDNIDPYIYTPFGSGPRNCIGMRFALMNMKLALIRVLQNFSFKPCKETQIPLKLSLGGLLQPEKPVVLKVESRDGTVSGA

[3] = Cushing's syndrome patients; cited from earlier work
[4] = Phase 1 hepatic impairment study of relacorilant (moderate hepatic impairment vs matched controls); assay type: in vivo, human
Experimental: A phase 1, open-label, multiple-dose study included 18 subjects (18-70 years). Of these subjects, 9 subjects had moderate hepatic impairment (Child—Pugh Class B) and 9 subjects were controls with normal hepatic function matched for age, sex, and body weight.
Relacorilant was administered at a dose of 300 mg/day for 10 days under fasted conditions. Blood samples for pharmacokinetic (PK) analysis were collected before dosing on Day 1 and from before dosing on Day 10 through 144 hours after the last dose of study drug (Day 16).
Subjects with moderate hepatic impairment were well matched for age, sex, and body weight Mean total Child-Pugh score of 7.9 (range: 7-9) in subjects with moderate hepatic impairment. Liver function was assessed by measurements of alanine aminotransferase (ALT) and aspartate aminotransferase (AST) levels.

[5] = via CYP3A and carbonyl reductase; cited from earlier work

Cn1cc(S(=O)(=O)N2CCC3=Cc4c(cnn4-c4ccc(F)cc4)C[C@]3(C(=O)c3cc(C(F)(F)F)ccn3)C2)cn1 [relacorilant, (R)-(1-(4-fluorophenyl)-6-((1-methyl-1H-pyrazol-4-yl)sulfonyl)-4,4a,5,6,7,8-hexahydro-1H-pyrazolo[3,4-g]isoquinolin-4a-yl)(4-(trifluoromethyl)pyridin-2-yl)methanone]
CYP2C8 inhibition (CYP2C8): does not result in clinically significant inhibition | CYP2C9 inhibition (CYP2C9): does not result in clinically significant inhibition | binding to GR [1]: binds | normalization of ALT in patients with abnormal ALT values at baseline ([2]; Cushing's syndrome patients): 2 of 4 | change in LFTs, baseline to last observation ([2]; both dose groups (100-200 mg/day 12 weeks; 250-400 mg/day 16 weeks)): Reductions | change in LFTs, high-dose group compared with low-dose group ([2]; high-dose group 250-400 mg/day, 16 weeks): greater reductions | affinity for the progesterone receptor (progesterone receptor): lacks affinity | CYP3A4 inhibition (CYP3A4): strong CYP3A4 inhibitor | antiprogesterone effects or drug-induced hypokalemia [3]: without antiprogesterone effects or drug-induced hypokalemia | effect on hypertension and hyperglycemia [3]: clinically meaningful improvement | other cortisol-excess-related comorbidities (hypercoagulopathy, cognitive function, mood, quality of life) [3]: Improvement | pharmacokinetic difference, moderate hepatic impairment vs matched controls ([4]; 300 mg/day for 10 days, fasted): No apparent difference | relacorilant exposures (area under the curve and maximum plasma concentration) across both groups ([4]; moderate hepatic impairment vs matched controls): largely overlapped | change in mean liver function tests (ALT, AST) ([4]; patients with moderate hepatic impairment, 300 mg/day for 10 days, fasted, baseline to Day 16): Reductions | route of elimination [5]: primarily hepatic
